The record followed here is the supplement of paper PMC10307832.

Assay in all cases: relative viability (nuclei count vs DMSO), 5 days (fraction); higher = more cells survive
Compound in test [1]: C[C@]12O[C@H](C[C@]1(O)CO)n1c3ccccc3c3c4c(c5c6ccccc6n2c5c31)CNC4=O [Lestaurtinib] + CC1(C)CCC(c2ccc(Cl)cc2)=C(CN2CCN(c3ccc(C(=O)NS(=O)(=O)c4ccc(N[C@H](CCN5CCOCC5)CSc5ccccc5)c(S(=O)(=O)C(F)(F)F)c4)cc3)CC2)C1 [Navitoclax] (partner 0.5 µM)
The essentials: (§1)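 The day after seeding in 1536-well plates, lung cancer cell lines were treated by pin tool with a single drug, or with a fixed anchor-drug dose together with five library-drug doses (not always all listed) in √10 steps. After 5 days, a combined fix-and-stain solution (final 0.05% Triton X-100, 1% formaldehyde, 1 ug/ml Hoechst) was added. Nuclei counted on 4× images gave relative viability as treated counts over vehicle counts, reported as the median of duplicate plates.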

Compound in test [2]: C1/C(=C\C2=CC=CS2)/C(=O)/C(=C/C3=CC=CS3)/C1 + CC1(C)CCC(c2ccc(Cl)cc2)=C(CN2CCN(c3ccc(C(=O)NS(=O)(=O)c4ccc(N[C@H](CCN5CCOCC5)CSc5ccccc5)c(S(=O)(=O)C(F)(F)F)c4)cc3)CC2)C1 [Navitoclax] (partner 0.5 µM)
The essentials:
as §1

Compound in test [3]: C[C@]12O[C@H](C[C@]1(O)CO)n1c3ccccc3c3c4c(c5c6ccccc6n2c5c31)CNC4=O [Lestaurtinib] + Cc1cc(Nc2cc(N3CCN(C)CC3)nc(Sc3ccc(NC(=O)C4CC4)cc3)n2)n[nH]1 [Tozasertib] (partner 0.1 µM)
The method, boiled down:
as §1

Compound in the test “Lestaurtinib + Alpelisib”: C[C@]12O[C@H](C[C@]1(O)CO)n1c3ccccc3c3c4c(c5c6ccccc6n2c5c31)CNC4=O [Lestaurtinib] + Cc1nc(NC(=O)N2CCC[C@H]2C(N)=O)sc1-c1ccnc(C(C)(C)C(F)(F)F)c1 [Alpelisib] (partner 2 µM)
The method, boiled down:
as §1

In the case of ChaGo-K-1, the relative viability was found to be 1.03 in test [1] (first compound 0.005 µM); 1.59 in test [1] (first compound 0.01581 µM); 0.962 in test [1] (first compound 0.05 µM); 0.603 in test [1] (first compound 0.1581 µM); 0.497 in test [1] (first compound 0.5 µM); 1.01 in test [2] (first compound 0.2 µM). Moreover, the relative viability came to 0.964 in test [2] (first compound 0.6325 µM); 1.11 in test [2] (first compound 2 µM); 0.698 in test [2] (first compound 6.325 µM); 0.727 in test [2] (first compound 20 µM); 0.221 in test [3] (first compound 0.005 µM); 0.254 in test [3] (first compound 0.01581 µM). The results for the relative viability in test [3] (first compound 0.05 µM), in test [3] (first compound 0.1581 µM) and in test [3] (first compound 0.5 µM) were 0.243, 0.231 and 0.215, respectively.
On to EBC-1, for which the relative viability turned out to be 0.381 in test [1] (first compound 0.005 µM); 0.51 in test [1] (first compound 0.01581 µM); 0.343 in test [1] (first compound 0.05 µM); 0.328 in test [1] (first compound 0.1581 µM); 0.193 in test [1] (first compound 0.5 µM); 0.439 in test [2] (first compound 0.2 µM). Besides, the relative viability in test [2] (first compound 0.6325 µM) was 0.469; in test [2] (first compound 2 µM) it was 0.478; in test [2] (first compound 6.325 µM), 0.398; in test [2] (first compound 20 µM), 0.497; with Lestaurtinib + Alpelisib (first compound 0.005 µM), 0.851; with Lestaurtinib + Alpelisib (first compound 0.01581 µM) it was 0.948. In addition, the relative viability came out at 0.658 in the test with Lestaurtinib + Alpelisib (first compound 0.05 µM), 0.624 in the test with Lestaurtinib + Alpelisib (first compound 0.1581 µM) and 0.298 in the test with Lestaurtinib + Alpelisib (first compound 0.5 µM).
As to EKVX, the relative viability in test [1] (first compound 0.005 µM) is 1.03; in test [1] (first compound 0.01581 µM), 0.889; in test [1] (first compound 0.05 µM), 0.965; in test [1] (first compound 0.1581 µM), 0.929; in test [1] (first compound 0.5 µM), 0.45; in test [2] (first compound 0.2 µM) it was 0.999. Moreover, the relative viability in test [2] (first compound 0.6325 µM) is 0.87; in test [2] (first compound 2 µM), 0.916; in test [2] (first compound 6.325 µM), 0.912; in test [2] (first compound 20 µM) it was 0.919; with Lestaurtinib + Alpelisib (first compound 0.005 µM) it was 0.892; with Lestaurtinib + Alpelisib (first compound 0.01581 µM), 1.03. Further, the relative viability was determined as 0.938 with Lestaurtinib + Alpelisib (first compound 0.05 µM); 0.743 with Lestaurtinib + Alpelisib (first compound 0.1581 µM); 0.519 in the test with Lestaurtinib + Alpelisib (first compound 0.5 µM); 0.345 in test [3] (first compound 0.005 µM); 0.432 in test [3] (first compound 0.01581 µM); 0.417 in test [3] (first compound 0.05 µM). Moreover, the relative viability in test [3] (first compound 0.1581 µM) is 0.378; in test [3] (first compound 0.5 µM), 0.395.
Take EMC-BAC-2: the relative viability in test [1] (first compound 0.005 µM) stood at 1.25; in test [1] (first compound 0.01581 µM), 1.22; in test [1] (first compound 0.05 µM), 0.891; in test [1] (first compound 0.1581 µM), 0.656; in test [1] (first compound 0.5 µM), 0.346; in test [2] (first compound 0.2 µM), 1.21. Also, the relative viability is 1.11 in test [2] (first compound 0.6325 µM); 1.13 in test [2] (first compound 2 µM); 1.05 in test [2] (first compound 6.325 µM); 1.1 in test [2] (first compound 20 µM); 0.786 with Lestaurtinib + Alpelisib (first compound 0.005 µM); 0.76 in the test with Lestaurtinib + Alpelisib (first compound 0.01581 µM). In addition, the relative viability in the test with Lestaurtinib + Alpelisib (first compound 0.05 µM) came out at 0.541; with Lestaurtinib + Alpelisib (first compound 0.1581 µM), 0.398; in the test with Lestaurtinib + Alpelisib (first compound 0.5 µM), 0.216; in test [3] (first compound 0.005 µM), 0.279; in test [3] (first compound 0.01581 µM), 0.206; in test [3] (first compound 0.05 µM) it was 0.283. The values for the relative viability in test [3] (first compound 0.1581 µM) and in test [3] (first compound 0.5 µM) were 0.22 and 0.183, respectively.
As to EPLC-272H, the relative viability in test [1] (first compound 0.005 µM) stood at 1.29; in test [1] (first compound 0.01581 µM), 0.924; in test [1] (first compound 0.05 µM) it was 0.6; in test [1] (first compound 0.1581 µM) it was 0.643; in test [1] (first compound 0.5 µM) it was 0.689; in test [2] (first compound 0.2 µM) it was 1.28. Besides, the relative viability is 0.965 in test [2] (first compound 0.6325 µM); 1.15 in test [2] (first compound 2 µM); 1.09 in test [2] (first compound 6.325 µM); 0.95 in test [2] (first compound 20 µM); 0.896 with Lestaurtinib + Alpelisib (first compound 0.005 µM); 0.917 in the test with Lestaurtinib + Alpelisib (first compound 0.01581 µM). Further, the relative viability was determined as 0.575 in the test with Lestaurtinib + Alpelisib (first compound 0.05 µM); 0.522 with Lestaurtinib + Alpelisib (first compound 0.1581 µM); 0.556 with Lestaurtinib + Alpelisib (first compound 0.5 µM); 0.297 in test [3] (first compound 0.005 µM); 0.282 in test [3] (first compound 0.01581 µM); 0.322 in test [3] (first compound 0.05 µM). Also, the results for the relative viability in test [3] (first compound 0.1581 µM) and in test [3] (first compound 0.5 µM) were 0.231 and 0.128, respectively.
As for H3255, the relative viability was found to be 0.44 in test [1] (first compound 0.005 µM); 0.437 in test [1] (first compound 0.01581 µM); 0.327 in test [1] (first compound 0.05 µM); 0.279 in test [1] (first compound 0.1581 µM); 0.182 in test [1] (first compound 0.5 µM); 0.583 in test [2] (first compound 0.2 µM). Besides, the relative viability in test [2] (first compound 0.6325 µM) was 0.501; in test [2] (first compound 2 µM) it was 0.669; in test [2] (first compound 6.325 µM), 0.393; in test [2] (first compound 20 µM), 0.453; in the test with Lestaurtinib + Alpelisib (first compound 0.005 µM), 0.686; with Lestaurtinib + Alpelisib (first compound 0.01581 µM), 0.739. In addition, the relative viability is 0.541 with Lestaurtinib + Alpelisib (first compound 0.05 µM); 0.385 with Lestaurtinib + Alpelisib (first compound 0.1581 µM); 0.296 with Lestaurtinib + Alpelisib (first compound 0.5 µM); 0.611 in test [3] (first compound 0.005 µM); 0.884 in test [3] (first compound 0.01581 µM); 0.633 in test [3] (first compound 0.05 µM). Moreover, the relative viability is 0.587 in test [3] (first compound 0.1581 µM) and 0.5 in test [3] (first compound 0.5 µM).
As to HARA, the relative viability is 1.15 in test [1] (first compound 0.005 µM); 1.18 in test [1] (first compound 0.01581 µM); 1.21 in test [1] (first compound 0.05 µM); 1.07 in test [1] (first compound 0.1581 µM); 0.196 in test [1] (first compound 0.5 µM); 1.1 in test [2] (first compound 0.2 µM). Further, the relative viability in test [2] (first compound 0.6325 µM) came to 1.15; in test [2] (first compound 2 µM), 1.13; in test [2] (first compound 6.325 µM), 0.497; in test [2] (first compound 20 µM), 1.11; in the test with Lestaurtinib + Alpelisib (first compound 0.005 µM) it was 0.769; with Lestaurtinib + Alpelisib (first compound 0.01581 µM), 0.825. The relative viability with Lestaurtinib + Alpelisib (first compound 0.05 µM) worked out at 0.639; with Lestaurtinib + Alpelisib (first compound 0.1581 µM), 0.487; with Lestaurtinib + Alpelisib (first compound 0.5 µM) it was 0.176; in test [3] (first compound 0.005 µM), 0.126; in test [3] (first compound 0.01581 µM) it was 0.106; in test [3] (first compound 0.05 µM), 0.111. The relative viability turned out to be 0.108 in test [3] (first compound 0.1581 µM) and 0.102 in test [3] (first compound 0.5 µM).
As to HCC-15, the relative viability in test [1] (first compound 0.005 µM) is 0.786; in test [1] (first compound 0.01581 µM) it was 0.883; in test [1] (first compound 0.05 µM), 0.668; in test [1] (first compound 0.1581 µM) it was 0.653; in test [1] (first compound 0.5 µM), 0.467; in test [2] (first compound 0.2 µM), 0.696. Besides, the relative viability in test [2] (first compound 0.6325 µM) worked out at 0.676; in test [2] (first compound 2 µM) it was 0.682; in test [2] (first compound 6.325 µM), 0.621; in test [2] (first compound 20 µM), 0.615; in the test with Lestaurtinib + Alpelisib (first compound 0.005 µM), 1.02; with Lestaurtinib + Alpelisib (first compound 0.01581 µM) it was 1.06. Also, the relative viability in the test with Lestaurtinib + Alpelisib (first compound 0.05 µM) worked out at 0.819; in the test with Lestaurtinib + Alpelisib (first compound 0.1581 µM) it was 0.583; in the test with Lestaurtinib + Alpelisib (first compound 0.5 µM), 0.161; in test [3] (first compound 0.005 µM) it was 0.598; in test [3] (first compound 0.01581 µM), 0.599; in test [3] (first compound 0.05 µM), 0.232. The relative viability in test [3] (first compound 0.1581 µM) was 0.235; in test [3] (first compound 0.5 µM), 0.107.
